One assay concerns PREC. Briefly: Bioassay for apoptosis (apoptotic EC50). The following applies: Homo sapiens, unit inferred. It is filed as cell-based. The protocol: Cells were cultured at 1.5×10^5 cells/well in 12 well plates. Cells were allowed to adhere overnight, then incubated with novel test compounds at 0.01, 0.1, 1, 5, 10 & 20 μg/mL for 1, 2 and 3 days. After treatment, cells (floating+trypsin released adherent cells) were pelleted, washed and stained with 2 μg/ml DAPI (4′,6-diamidine-2′-phenylindole dihydrochloride) in 100% methanol for 15 minutes at 37° C. and/or 3′-OH ends resulting from DNA fragmentation were detected with the TUNEL (terminal deoxynucleotidyl transferase-mediated dUTP-X 3′ nick end-labeling) technique, and then viewed using a Zeiss ICM 405 microscope. Cells whose nucleus contained clearly condensed or fragmented chromatin or stained for fragmented DNA in the TUNEL assay were scored as apoptotic. Data are presented as percent cells undergoing apoptosis.

The test system of the next assay is Jurkat. Briefly: Bioassay for apoptosis (apoptotic EC50). Type of assay: cell-based, human. In a few lines:
(§1)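 Read-out: percent apoptotic cells, scored by microscopy as condensed/fragmented chromatin (DAPI, 2 μg/ml, 15 min, 37° C) or TUNEL-positive fragmented DNA. Compounds tested at 0.01, 0.1, 1, 5, 10 and 20 μg/mL for 1–3 days on overnight-adhered cells.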

The test system of a further assay is MCF-7. Briefly: Bioassay for apoptosis (apoptotic EC50). Type of assay: cell-based, human. In a few lines: (§2)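 Cells seeded at 1.5×10^5/well, adhered overnight, then exposed to compounds at 0.01–20 μg/mL for 1, 2 and 3 days. Floating plus trypsinised cells were stained with 2 μg/ml DAPI in methanol (15 min, 37° C) and/or TUNEL, and scored microscopically as percent apoptotic cells.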

A further assay deals with HT-29. Briefly: Bioassay for apoptosis (apoptotic EC50). It is filed as cell-based, human. A digest of the protocol: as §1
In another assay the test system is MDA-MB-435. The assay can be described thus: Bioassay for apoptosis (apoptotic EC50). Type of assay: cell-based, human. In a few lines:
as §2

In another assay the test system is C-170. Briefly: Bioassay for apoptosis (apoptotic EC50). It is filed as cell-based, human. The note with it: Homo sapiens, C170, C-170; unit inferred. In a few lines:
as §2

Another assay relates to A-549. Briefly: Bioassay for apoptosis (apoptotic EC50). It is filed as cell-based, human. A digest of the protocol:
as §1

The subject of another assay is HL-60. The assay can be described thus: Bioassay for apoptosis (apoptotic EC50). Type of assay: cell-based, human. A digest of the protocol: as §2
Another assay deals with ME-180. The assay can be described thus: Bioassay for apoptosis (apoptotic EC50). Type of assay: cell-based, human. In a few lines:
as §2

Assay [1] concerns MDA-MB-435 cells. The assay can be described thus: Apoptosis by DAPI staining (Example 8). It is filed as cell-based, human. The following applies: for EC50: MDA-MB-435, 2% serum, DAPI staining at three day treatment. The method, then: (§3) MDA-MB-435 and MCF-7 cells at 1.5×10^5/well in 12 well plates for apoptosis and 1.5×10^4/well in 96 well plates for DNA synthesis arrest were incubated overnight in culture media and treated with α-tocopherol, α-tocotrinel, compound 1, 6-0-carboxymethyl alpha-tocotrienol (6-0-CM-α-T, 44), and vitamin E succinate (VES) at different concentrations in experimental media (2% serum for MDA-MB-435 cells and 5% serum for MCF-7 cells). DNA synthesis arrest was determined by ^3H-uptake at one day treatment and apoptosis was detected by DAPI staining at three day treatment. EC50 was calculated as the dosage of test compounds that gave 50% growth inhibition.

The subject of assay [2] is MCF-7 cells. Briefly: Apoptosis by DAPI staining (Example 8). It is filed as cell-based, human. The note with it: 5% serum, DAPI staining at three day treatment. The method, then:
as §3

For assay [3], the system named is MDA-MB-435 cells. Briefly: DNA synthesis arrest by 3H-uptake (Example 8). Type of assay: cell-based, human. The note with it: for EC50: MDA-MB-435, 2% serum, 3H-uptake at one day treatment. The method, then: as §3
Assay [4] has as its system MCF-7 cells. Briefly: DNA synthesis arrest by 3H-uptake (Example 8). Type of assay: cell-based, human. The following applies: 3H-uptake at one day treatment. The method, then:
as §3

The next assay relates to RL-95-2. The assay can be described thus: Bioassay for apoptosis (apoptotic EC50). Type of assay: cell-based, human. The note with it: RL-95-2; unit not given; in µg/mL. A digest of the protocol:
as §2

A further assay concerns Ramos. The assay can be described thus: Bioassay for apoptosis (apoptotic EC50). Type of assay: cell-based, human. The following applies: unit not given. A digest of the protocol: as §1
The subject of another assay is LnCaP. Briefly: Bioassay for apoptosis (apoptotic EC50). The following applies: unit not given, in µg/mL. Type of assay: cell-based, human. A digest of the protocol: as §2
A further assay concerns DU-145. The assay can be described thus: Bioassay for apoptosis (apoptotic EC50). Type of assay: cell-based, human. The note with it: unit not given, in µg/mL. A digest of the protocol:
as §1

For the next assay, the system named is Raji. Briefly: Bioassay for apoptosis (apoptotic EC50). Type of assay: cell-based, human. The note with it: unit not given. In a few lines: as §1
The subject of the next assay is MDA-MB-231. Briefly: Bioassay for apoptosis (apoptotic EC50). Type of assay: cell-based, human. The note with it: MDA-MB-231; unit not given; in µg/mL. In a few lines: as §2
A further assay has as its system Myeloma. The assay can be described thus: Bioassay for apoptosis (apoptotic EC50). It is filed as cell-based, human. The note with it: unit not given. A digest of the protocol: as §1
In the next assay the test system is DLD-1. The assay can be described thus: Bioassay for apoptosis (apoptotic EC50). Type of assay: cell-based, human. The note with it: unit not given, in µg/mL. A digest of the protocol:
as §1

The next assay concerns PC-3. Briefly: Bioassay for apoptosis (apoptotic EC50). Type of assay: cell-based, human. The note with it: PC-3; unit not given; in µg/mL. A digest of the protocol:
as §2

Assay [5] concerns breast tumor cell line MDA-MB-435. The assay can be described thus: Bioassay for DNA synthesis arrest, naturally occurring vitamin E compounds. It is filed as cell-based, human. The following applies: Table 1. The method, then:
Table 1 provides tumor growth inhibitory properties of naturally occurring vitamin E compounds against the breast tumor cell line MDA-MB-435.
To assay DNA synthesis, all cells were used at 2.5×10^5/ml. Cells were treated with each of the compounds at concentrations of 0.01, 0.1, 1, 5, 10 and 20 μg/mL and 200 μl of each treatment group were plated in quadruplicate in a 96 well culture plate (Corning, Corning N.Y.). Experiments were done in duplicate, one plate used for viability testing and the other plate for examination of ^3H-TdR uptake to monitor DNA synthesis. Plates were cultured for 48 hours at 37° C., 5% CO2. Eight hours prior to the end of incubation, ^3H-TdR was added to one of the duplicate plates and incubation continued for 8 hours.
The cells were then harvested (trypsinization was required to harvest adherent cells), and isotope uptake was determined as counts per minute (cpm). For viability studies, at the end of the incubation, the cells were removed from the wells and viability checked by the Trypan Blue Exclusion method. Percent viability and percent DNA synthesis in comparison to untreated or vehicle treated cells of each treatment group were calculated.

The mark [6] stands for this setting: MDA-MB-435, Table 1, read-out: EC50 for Apoptosis.

Like-named read-outs stand apart in the source and are kept apart here. Some results are limits rather than exact numbers.

These results are taken from US8148424B2, “Tocopherols, tocotrienols, other chroman and side chain derivatives and uses thereof” (Research Development Foundation, priority 1998, dated 2012).

Broadly, the EC50 is the concentration giving half of the maximal effect.

As for `CC(C)=CCC/C(C)=C/C=C/C(C)=C/[C@]1(C)CCc2c(C)c(OCC(=O)O)c(C)c(C)c2O1` [Compound 18], the EC50 in the assay with PREC was over 20 µg/mL; with Jurkat (Homo sapiens, unit inferred), over 20 µg/mL; with MCF-7 (Homo sapiens, MCF7, MCF-7, unit inferred) it was over 20 µg/mL; in the assay on HT-29 (Homo sapiens, unit inferred) it was over 20 µg/mL; with MDA-MB-435 (Homo sapiens, MDA-MB-435, MDA-MB-435, unit inferred, read-out: apoptotic EC50), over 20 µg/mL; in the assay on C-170, over 20 µg/mL. Moreover, the EC50 was over 20 µg/mL with A-549 (Homo sapiens, A549, unit inferred); over 20 µg/mL with HL-60 (Homo sapiens, HL-60, HL-60, unit inferred); over 20 µg/mL with ME-180 (Homo sapiens, ME-180, ME-180, unit inferred).
Regarding `CC(C)=CCC/C(C)=C/CC/C(C)=C/CC[C@]1(C)CCc2c(C)c(OCC(=O)O)c(C)c(C)c2O1` [Compound 44], a half-maximal response in the assay on MDA-MB-435 cells [1] (Homo sapiens, 72 h) (EC50) required 5.6 µM. Also, in the assay on MDA-MB-435 cells [1] (MDA-MB-435 and MCF-7), the “induction of apoptosis higher than alpha tocotrienol” value is 4-12 fold, the “induction of apoptosis higher than compound 1” value is reported as 4-5 fold and the “induction of apoptosis higher than vitamin E succinate” value was 4-6 fold. Further, the EC50 in the assay with MCF-7 cells [2] (Homo sapiens, MCF7, 72 h) was determined as 10 µM. The compound also returned an EC50 with MDA-MB-435 cells [3] (Homo sapiens) of 2.5 µM. In the assay on MDA-MB-435 cells [3] (MDA-MB-435 and MCF-7), the “antitumor activity (DNA synthesis arrest) higher than alpha-tocotrienol” value is reported as 8-12 fold, the “antitumor activity (DNA synthesis arrest) higher than compound 1” value is 4-6 fold and the “antitumor activity (DNA synthesis arrest) higher than vitamin E succinate” value is reported as 4-7 fold. Moreover, the EC50 in the assay with MCF-7 cells [4] (Homo sapiens, MCF7, 5% serum) stood at 5 µM.
Take `Cc1c(C)c2c(c(C)c1OC(=O)CCC(=O)O)CC[C@@](C)(CCC[C@H](C)CCC[C@H](C)CCCC(C)C)O2` [VES, RRR-α-tocopherol succinate, reference compound]: the “apoptotic EC50” value in the assay with RL-95-2 is 10-20; in the assay with Ramos it was 10-20; in the assay with Jurkat (unit not given, in µg/mL) it was 10-20; in the assay on LnCaP, 5-10; in the assay with MCF-7 (MCF-7, unit not given, in µg/mL), 10-20; in the assay with HT-29 (unit not given, in µg/mL), 5-10. For the same compound, the “apoptotic EC50” value was 10-20 in the assay on DU-145; 5-10 in the assay with MDA-MB-435 (MDA-MB-435, unit not given, in µg/mL); 10-20 with Raji; 5-10 with MDA-MB-231; 10-20 in the assay on Myeloma; 10-20 in the assay with DLD-1. For the same compound, the “apoptotic EC50” value with A-549 (unit not given, in µg/mL) is given as 20-30; with PC-3, 10-20; in the assay with HL-60 (HL-60, unit not given, in µg/mL), 10-20; in the assay on ME-180 (ME-180, unit not given, in µg/mL), 10-20. Besides, the concentration giving a half-maximal response (EC50) with MDA-MB-435 cells [1] was determined as 36 µM; with MCF-7 cells [2], 40 µM; in the assay on MDA-MB-435 cells [3], 17 µM; with MCF-7 cells [4] (5% serum) it was 22 µM.
On to `Cc1c(C)c2c(c(C)c1O)CC[C@@](C)(CCC[C@H](C)CCC[C@H](C)CCCC(C)C)O2` [α-tocopherol, RRR-α-tocopherol, reference compound], for which the EC50 in assay [5] is over 400 µM; in the assay with MDA-MB-435 (setting [6]), over 400 µM; in the assay on MDA-MB-435 cells [1], over 100 µM; with MCF-7 cells [2], over 100 µM; with MDA-MB-435 cells [3], over 100 µM; with MCF-7 cells [4] (5% serum) it was over 100 µM.
Take α-tocotrienol [reference compound]: the EC50 in assay [5] was 40 µM; in the assay with MDA-MB-435 (setting [6]), 50 µM; in the assay on MDA-MB-435 cells [1], 66 µM; in the assay on MCF-7 cells [2], 40 µM; with MDA-MB-435 cells [3] it was 29 µM; in the assay on MCF-7 cells [4] (5% serum), 40 µM.
